According to publication PMC11555678, “Improved Broad Spectrum Antifungal Drug Synergies with Cryptomycin, a Cdc50-Inspired Antifungal Peptide” (ACS Infectious Diseases, 2024):
Converted amounts (≈) assume the structure as drawn. Like-named read-outs stand apart in the source and are kept apart here.

Columns and labels:
[1] = tested on: C. albicans SC5413; experiment: microbe, parasite or virus in culture; type: cell-based, Candida albicans; settings: Candida albicans, SC5413; compound alone; RPMI1640, 37 °C, 48 h; read-out: MIC
Procedure, shortened: (§1)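 Testing follows the CLSI M27 protocol for yeasts: test compounds are diluted 2-fold serially in RPMI1640, and washed overnight cells are added at 5000 cfu/mL before 2 days' incubation at 37 °C.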

[2] = tested on: Cn Crm1-oe; experiment: microbe, parasite or virus in culture; type: cell-based, Cryptococcus neoformans; settings: Cryptococcus neoformans, CRM1OE, 48 h, 37 °C
Experimental: (§2) Previous studies have shown that modifying microbiological media with salts such as CaCl2 can have a drastic effect on the growth of fungi and their responses to antifungals.[19],[35] In the case of CaCl2, the divalent cation, Ca^2+, is involved in fungal cell stress response. To understand how the peptide activity may involve calcium and stress response, the MICs of KKOO, KKOO-NH2, FLC, and CAS were assessed as a function of the calcium concentration in liquid YPD media. It was observed that calcium enrichment completely desensitized the wild-type strain to KKOO and KKOO-NH2, Tables 7 and 8, respectively. Effects of calcium enrichment on the susceptibility of Cryptococcus to CAS similar to literature values were recorded, Supporting Information, Table S7.[35]
(§3) All microdilution assays with fungi were carried out in accordance with CLSI protocols from M27 for yeasts and M38 for filamentous fungi, respectively, unless otherwise specified.[64],[65] Briefly, 96-well plates were charged with RPMI1640 media, with operating volume in the first column, 200 μL, and half operating volume, 100 μL, in the remaining wells. Drug stock solution in DMSO was aliquoted into the first well in each row. Half of the volume in the dosed well was serially diluted 2-fold until column 11. Column 11 was used as the negative growth control, and column 12 was used as the positive growth control. ON yeast cultures in YPD were washed twice in DD-H2O, resuspended in PBS, and adjusted to 5000 cfu/mL in RPMI. The 96-well plate was inoculated with 100 μL aliquots of cell suspension per well. Plates were incubated at 37 °C for 2 days.

[3] = tested on: Cn apt1Δ; experiment: microbe, parasite or virus in culture; type: cell-based, Cryptococcus neoformans; settings: Cryptococcus neoformans, 48 h, 37 °C, 48 h
Experimental: as §2, §3

[4] = tested on: Cn crm1Δ; experiment: microbe, parasite or virus in culture; type: cell-based, Cryptococcus neoformans; settings: Cryptococcus neoformans, 48 h, 37 °C
Experimental: as §2, §3

[5] = tested on: Cn MRL862; type: cell-based, Cryptococcus neoformans; settings: RPMI1640, 37 °C, 48 h
Experimental: as §3
(§4) To assess drug synergy, the initial media charged to the plate contained the peptide at twice the final operating concentration; the remaining processing steps were identical to the MIC experiment. Upon addition of 100 μL of inoculant, the final operating concentration was achieved. Control MIC plates were prepared alongside drug synergy plates to account for the day-to-day variability in any individual MIC. FIC index is computed using eq 1. All MIC assays and drug synergy assays were completed with two technical replicates per 96-well plate and a minimum of two biological replicates per drug combination. If a difference in MIC between the two technical replicates on the plate were observed, only the higher concentration was reported as the MIC to reduce the possibility of type 1 error (false positive) [drawing 1] 1

[6] = tested on: A. fumigatus AF293; experiment: microbe, parasite or virus in culture; type: cell-based, Aspergillus fumigatus; settings: Aspergillus fumigatus, AF293, 48 h
[7] = tested on: C. albicans SC5413; type: cell-based, Candida albicans; settings: RPMI1640, 37 °C, 48 h; for MIC of antifungal in combination with KKOO: azole MICs unclear (intermediate phenotype); for MIC of antifungal in combination with KKOO-NH2: azole MICs could not be determined (intermediate phenotype)
Experimental: as §3, §4

[8] = tested on: C. auris B11245; experiment: microbe, parasite or virus in culture; type: cell-based, Candida auris; settings: Candidozyma auris, B11245; compound alone; RPMI1640, 37 °C, 48 h; * = paradoxical growth observed (CAS); read-out: MIC
Procedure, shortened: as §1

[9] = tested on: Cg FKS1 S629P; experiment: Drug synergy (MIC in peptide-supplemented media); type: cell-based, Candida glabrata; settings: for MIC of antifungal in combination with KKOO / MIC of antifungal in combination with KKOO-NH2: RPMI1640, 37 °C, 48 h
Experimental: as §3, §4

[10] = tested on: Cg FKS2 S663P; experiment: Drug synergy (MIC in peptide-supplemented media); type: cell-based, Candida glabrata; settings: for MIC of antifungal in combination with KKOO / MIC of antifungal in combination with KKOO-NH2: RPMI1640, 37 °C, 48 h
Experimental: as §3, §4

[11] = tested on: C. auris B11245; type: cell-based, Candida auris; settings: for MIC of antifungal in combination with KKOO / MIC of antifungal in combination with KKOO-NH2: RPMI1640, 37 °C, 48 h, CAS: paradoxical growth; for MIC of antifungal in combination with KKOO: MIC = <20% growth; for MIC of antifungal in combination with KKOO-NH2: MIC = well with <20% growth
Experimental: as §3, §4

[12] = in the presence of 2 μg/mL KKOO-NH2

Structure (SMILES): CC[C@H](C)C[C@H](C)CCCCCCCCC(=O)N[C@H]1C[C@@H](O)[C@@H](NCCN)NC(=O)[C@@H]2[C@@H](O)CCN2C(=O)[C@H]([C@H](O)CCN)NC(=O)[C@H]([C@H](O)[C@@H](O)c2ccc(O)cc2)NC(=O)[C@@H]2C[C@@H](O)CN2C(=O)[C@H]([C@@H](C)O)NC1=O [CAS, caspofungin]
- MIC [1]: 0.25 µg/mL (≈ 0.229 µM)
- MIC ([2]; YPD + 0 mM Ca2+): 8 µg/mL
- MIC ([2]; YPD + 2.5 mM Ca2+): 32 µg/mL
- MIC ([2]; YPD + 5 mM Ca2+): 32 µg/mL
- MIC ([2]; YPD + 10 mM Ca2+): 128 µg/mL
- MIC ([2]; YPD + 20 mM Ca2+): 128 µg/mL
- MIC ([3]; YPD + 0 mM Ca2+): 8 µg/mL
- MIC ([3]; YPD + 2.5 mM Ca2+): 16 µg/mL
- MIC ([3]; YPD + 5 mM Ca2+): 32 µg/mL
- MIC ([3]; YPD + 10 mM Ca2+): 32 µg/mL
- MIC ([3]; YPD + 20 mM Ca2+): 64 µg/mL
- MIC ([4]; YPD + 0 mM Ca2+): 8 µg/mL
- MIC ([4]; YPD + 2.5 mM Ca2+): 32 µg/mL
- MIC ([4]; YPD + 5 mM Ca2+): 32 µg/mL
- MIC ([4]; YPD + 10 mM Ca2+): 64 µg/mL
- MIC ([4]; YPD + 20 mM Ca2+): > 128 µg/mL
- MIC of antifungal in combination with KKOO ([5]; +0 μg/mL KKOO (control)): 16 µg/mL
- MIC of antifungal in combination with KKOO-NH2 ([5]; +0 μg/mL KKOO-NH2 (control)): 16 µg/mL
- MIC of antifungal in combination with KKOO-NH2 ([5]; +1 μg/mL KKOO-NH2): 16 µg/mL
- MIC of antifungal in combination with KKOO ([5]; +1 μg/mL KKOO): 16 µg/mL
- MIC of antifungal in combination with KKOO-NH2 ([5]; +2 μg/mL KKOO-NH2): 8 µg/mL
- MIC of antifungal in combination with KKOO ([5]; +2 μg/mL KKOO): 16 µg/mL
- MIC of antifungal in combination with KKOO-NH2 ([5]; +4 μg/mL KKOO-NH2): 4 µg/mL
- MIC of antifungal in combination with KKOO ([5]; +4 μg/mL KKOO): 8 µg/mL
- MIC [6]: 0.125 µg/mL (≈ 0.114 µM)
- MIC of antifungal in combination with KKOO ([7]; +0 μg/mL KKOO (control)): 0.25 µg/mL
- MIC of antifungal in combination with KKOO-NH2 ([7]; +0 μg/mL KKOO-NH2 (control)): 0.25 µg/mL
- MIC of antifungal in combination with KKOO-NH2 ([7]; +1 μg/mL KKOO-NH2): 0.5 µg/mL
- MIC of antifungal in combination with KKOO ([7]; +1 μg/mL KKOO): 0.5 µg/mL
- MIC of antifungal in combination with KKOO-NH2 ([7]; +2 μg/mL KKOO-NH2): 0.062 µg/mL
- MIC of antifungal in combination with KKOO ([7]; +2 μg/mL KKOO): 0.125 µg/mL
- MIC of antifungal in combination with KKOO-NH2 ([7]; +4 μg/mL KKOO-NH2): 0.008 µg/mL
- MIC of antifungal in combination with KKOO ([7]; +4 μg/mL KKOO): 0.556 µg/mL
- MIC of antifungal in combination with KKOO ([7]; +8 μg/mL KKOO): 0.008 µg/mL
- MIC [8]: 1 µg/mL (≈ 0.915 µM)
- MIC of antifungal in combination with KKOO ([9]; +0 μg/mL KKOO (control)): 1 µg/mL
- MIC of antifungal in combination with KKOO-NH2 ([9]; +0 μg/mL KKOO-NH2 (control)): 1 µg/mL
- MIC of antifungal in combination with KKOO-NH2 ([9]; +1 μg/mL KKOO-NH2): 0.5 µg/mL
- MIC of antifungal in combination with KKOO ([9]; +1 μg/mL KKOO): 0.5 µg/mL
- MIC of antifungal in combination with KKOO-NH2 ([9]; +2 μg/mL KKOO-NH2): 0.062 µg/mL
- MIC of antifungal in combination with KKOO ([9]; +2 μg/mL KKOO): 0.125 µg/mL
- MIC of antifungal in combination with KKOO-NH2 ([9]; +4 μg/mL KKOO-NH2): 0.004 µg/mL
- MIC of antifungal in combination with KKOO ([9]; +4 μg/mL KKOO): 0.008 µg/mL
- reduction of MIC of antifungal [9, 12]: 16 fold
- MIC of antifungal in combination with KKOO ([10]; +0 μg/mL KKOO (control)): 4 µg/mL
- MIC of antifungal in combination with KKOO-NH2 ([10]; +0 μg/mL KKOO-NH2 (control)): 4 µg/mL
- MIC of antifungal in combination with KKOO-NH2 ([10]; +1 μg/mL KKOO-NH2): 2 µg/mL
- MIC of antifungal in combination with KKOO ([10]; +1 μg/mL KKOO): 2 µg/mL
- MIC of antifungal in combination with KKOO-NH2 ([10]; +2 μg/mL KKOO-NH2): 1 µg/mL
- MIC of antifungal in combination with KKOO ([10]; +2 μg/mL KKOO): 2 µg/mL
- MIC of antifungal in combination with KKOO-NH2 ([10]; +4 μg/mL KKOO-NH2): 1 µg/mL
- MIC of antifungal in combination with KKOO ([10]; +4 μg/mL KKOO): 1 µg/mL
- reduction of MIC of antifungal [10, 12]: 4 fold
- MIC of antifungal in combination with KKOO ([11]; +0 μg/mL KKOO (control)): 1 µg/mL
- MIC of antifungal in combination with KKOO-NH2 ([11]; +0 μg/mL KKOO-NH2 (control)): 1 µg/mL
- MIC of antifungal in combination with KKOO-NH2 ([11]; +1 μg/mL KKOO-NH2): 0.5 µg/mL
- MIC of antifungal in combination with KKOO ([11]; +1 μg/mL KKOO): 1 µg/mL
- MIC of antifungal in combination with KKOO-NH2 ([11]; +2 μg/mL KKOO-NH2): 0.125 µg/mL
- MIC of antifungal in combination with KKOO ([11]; +2 μg/mL KKOO): 0.25 µg/mL
- MIC of antifungal in combination with KKOO-NH2 ([11]; +4 μg/mL KKOO-NH2): 0.031 µg/mL
- MIC of antifungal in combination with KKOO ([11]; +4 μg/mL KKOO): 0.031 µg/mL
- reduction of MIC of antifungal ([11]; in the presence of 2 μg/mL KKOO-NH2, 48 h): 8 fold
